The values below come from patent US20090259054A1, “Methods and Compositions for the Treatment of Angiogenesis and Macular Degeneration” (The Texas A&M University System, priority 2008, published 2009).

For assay [1], the system named is c-Src. In words: c-Src phosphorylation in HUVEC cells (immunoprecipitation, Western blotting). The assay is classed as cell-based, human. The note with it: HUVEC cells with or without VEGF, GA 1-40 nM, 5 minutes. How it is done:
(§1) After starvation in ECGM medium without serum overnight, HUVEC cells were washed with 1×PBS twice, followed with incubation in M199 medium. HUVEC cells were then treated with 1 nM of GA and/or 4 nM of VEGF for 5 minutes, then subjected to immunoprecipitation using anti-VEGFR2 antibody. Anti-phosphotyrosine antibody was used for the detection of phosphorylation of the tyrosine residue of VEGFR2. […] Reaction cocktail containing 100 ng of active VEGFR2 was incubated with different concentrations of GA for 5 minutes at room temperature. Substrate peptide cocktail was added to the pre-incubated reaction cocktail/GA compound. After incubation at room temperature for 30 minutes, stop buffer was added to halt the reaction. 25 μl of each reaction was then transferred with 75 μl dH2O per well into a 96-well streptavidin coated plate and incubated at room temperature for 60 minutes. […] The stop solution was added and the plate was detected at 405 nm. […]
(§2) HUVEC cells pretreated with or without 4 nM VEGF for 5 min were treated with or without different concentrations of GA for another 5 minutes. […] Anti-cleaved caspase 3 antibody (Santa Cruz Biotech) was used for detecting cleaved caspase 3 and polyADP ribose polymerase (PARP) cleavage was detected by an anti-PARP p85 fragment (Promega) in apoptosis assays.

The subject of assay [2] is C57BL/6 mice. The assay is described as follows: Matrigel plug assay (VEGF dependent angiogenesis in vivo). The note with it: VEGF 4 ng/ml, 7 days. How it is done:
Matrigel (0.5 ml/plug) with no VEGF or GA, VEGF (4 ng/ml) but no GA, VEGF (4 ng/ml) and 0.1 μM GA or 0.2 μM GA in liquid form at 4° C., respectively, were injected subcutaneously in the midventral abdominal region of 5-6 week old C57BL/6 mice (five mice for each group). After 7 days, the mice were sacrificed and the plugs were removed. Each concentration had 4-5 Matrigel plugs. The Matrigel plugs were fixed with formalin and embedded with paraffin. The 5 μm sections were stained with H&E staining. The number of erythrocyte-filled blood vessels in the high power microscope field (HPF, 200×) was recorded (plug number=4-5, t-test, p<0.005).

The subject of assay [3] is FAK. The assay is described as follows: FAK phosphorylation in HUVEC cells (immunoprecipitation, Western blotting). The assay is classed as cell-based, human. The note with it: HUVEC cells with or without VEGF, GA 1-40 nM, 5 minutes. As to the method:
as §1, §2

The subject of assay [4] is AKT. In words: AKT phosphorylation (pSer473) in HUVEC cells (immunoprecipitation, Western blotting). The assay is classed as cell-based, human. As to conditions: HUVEC cells with or without VEGF, increasing concentration of GA. As to the method: as §1, §2
The subject of assay [5] is mice aortic rings. In words: Aortic ring assay (micro-vessel growth). The assay is classed as cell-based. The note with it: 10 nM GA, 4 days incubation. As to the method: Forty-eight-well plates were covered with 100 μl of Matrigel at 4° C. and incubated at 37° C., 5% CO2 for 30 minutes. Aortas isolated from mice were cleaned of periadventitial fat and connective tissues, and cut into about 1-1.5 mm-long rings. After being rinsed five times with endothelial cell-based medium, the aortas were placed on the Matrigel covered wells and covered with another 100 μl of Matrigel. Artery rings were cultured in 1.5 ml of ECGM medium without serum for 24 hours. The medium was then replaced with 1.5 ml of ECGM medium supplemented with or without GA. The medium was changed every two days with the exact composition as described above. After 4 days incubation, the micro-vessel growth was quantified in the mouse aortic ring assay by taking photographs with an Olympus IX 70 inverted microscope using a 4× objective lens. After images were acquired, the outgrowth area was delineated and measured with Pro Plus software (Media Cybernetics).

The subject of assay [6] is mice exposed to OIR. In words: Mouse oxygen-induced ischemic retinopathy (OIR) model, retinal neovascularization. In kind it is in vivo. As to conditions: GA 10 mg/kg, P17 mice exposed to OIR, p<0.001. How it is done:
FIG. 9B is a bar graph providing a quantitative assessments of retinal neovascularization in eyes from P17 control and GA-treated mice exposed to OIR. Data in each column are the mean SD values from four eyes of four mice. […] GA concentration was used as 10 mg/kg for this mouse model. Assessment of retinal neovasculature in control (left) and GA-treated (right) mice during OIR.P7 mice were exposed to a cycle of hyperoxia and normoxia, and eyes were removed for appropriate analysis. The abnormal angiogenesis associated with vitreal invasion can be seen as glomeruloid-like tufts of cell (arrow).

Assay [7] addresses T1, VEGFR2 (Homo sapiens, UniProt P35968).
T1 construct: endogenous in cells; host or cells: HUVEC
In words: VEGFR2 tyrosine phosphorylation in VEGF stimulated HUVEC cells (immunoprecipitation, Western blotting). As to conditions: 1 nM GA, 4 nM VEGF, 5 minutes. The assay is classed as cell-based. As to the method:
as §1
VEGFR2 is the primary receptor in VEGF signaling pathway that regulates endothelial cell proliferation, migration, differentiation, tube formation, and angiogenesis. […] HUVEC cells were stimulated with VEGF; phosphorylation and activation of VEGFR2 was detected by immunoprecipitation with anti-VEGFR2 (Flk-1) antibody and by Western blotting with anti-pTyr-antibody for phosphorylation of VEGFR2.
(In western blotting, separated proteins are transferred to a membrane and probed.)

The test system of assay [8] is mouse cornea. The assay is described as follows: VEGF induced corneal angiogenesis, mouse corneal model. The assay is classed as in vivo. As to conditions: 2.5 μg/ml GA, 160 ng/ml VEGF.

SMILES strings stand for the structures. “Also recorded” adds a separate entry of the source.

T1 sequence (P35968 20-1356): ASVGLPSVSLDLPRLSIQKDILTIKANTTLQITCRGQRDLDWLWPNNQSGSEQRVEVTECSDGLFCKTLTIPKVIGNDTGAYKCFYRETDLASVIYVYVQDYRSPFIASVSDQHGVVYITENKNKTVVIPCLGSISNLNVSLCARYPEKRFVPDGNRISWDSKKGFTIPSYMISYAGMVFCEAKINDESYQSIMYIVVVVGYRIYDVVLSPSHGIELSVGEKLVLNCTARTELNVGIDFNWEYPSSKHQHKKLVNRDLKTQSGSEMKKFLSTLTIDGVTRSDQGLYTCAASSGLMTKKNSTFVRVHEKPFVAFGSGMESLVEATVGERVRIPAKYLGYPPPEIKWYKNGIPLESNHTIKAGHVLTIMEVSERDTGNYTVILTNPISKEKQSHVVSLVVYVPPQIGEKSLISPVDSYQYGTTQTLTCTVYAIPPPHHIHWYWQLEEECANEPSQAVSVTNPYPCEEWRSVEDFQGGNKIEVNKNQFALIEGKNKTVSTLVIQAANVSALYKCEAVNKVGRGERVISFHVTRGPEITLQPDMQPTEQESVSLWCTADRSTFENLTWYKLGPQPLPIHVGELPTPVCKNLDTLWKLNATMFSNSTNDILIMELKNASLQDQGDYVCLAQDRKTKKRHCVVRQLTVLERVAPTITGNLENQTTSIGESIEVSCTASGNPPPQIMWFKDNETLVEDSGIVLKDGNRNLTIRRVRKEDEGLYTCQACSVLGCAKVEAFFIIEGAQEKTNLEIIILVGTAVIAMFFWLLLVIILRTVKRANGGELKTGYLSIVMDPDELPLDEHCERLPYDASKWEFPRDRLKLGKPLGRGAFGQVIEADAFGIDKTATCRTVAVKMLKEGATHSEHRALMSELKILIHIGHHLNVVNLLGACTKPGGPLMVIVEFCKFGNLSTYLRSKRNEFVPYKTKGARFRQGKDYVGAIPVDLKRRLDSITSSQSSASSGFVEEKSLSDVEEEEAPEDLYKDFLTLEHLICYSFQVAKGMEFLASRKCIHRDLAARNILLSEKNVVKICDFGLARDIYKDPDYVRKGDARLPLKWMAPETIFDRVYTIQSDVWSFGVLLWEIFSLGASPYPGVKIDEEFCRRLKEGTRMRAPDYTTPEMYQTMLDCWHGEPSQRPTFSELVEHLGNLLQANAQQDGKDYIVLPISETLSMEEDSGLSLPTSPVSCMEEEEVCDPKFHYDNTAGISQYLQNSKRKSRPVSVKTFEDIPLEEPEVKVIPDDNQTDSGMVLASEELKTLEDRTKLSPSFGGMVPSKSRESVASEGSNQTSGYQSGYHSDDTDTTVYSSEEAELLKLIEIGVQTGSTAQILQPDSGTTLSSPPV

Turning to `CC(C)=CCC[C@]1(C)C=Cc2c(O)c3c(c(CC=C(C)C)c2O1)O[C@]12C(=C[C@@H]4C[C@H]1C(C)(C)O[C@@]2(C/C=C(/C)C(=O)O)C4=O)C3=O` [GA, gambogic acid], in assay [1], the “Phosphorylation and activation of c-Src” value was “significantly inhibited the phosphorylation and activation”. Moreover, the “VEGF dependent angiogenesis in Matrigel plugs” value in assay [2] (0.1 μM GA) is reported as “inhibited VEGF dependent angiogenesis”; in assay [2] (0.2 μM GA) it was “totally abolished angiogenesis”. Besides, in assay [3], the “Phosphorylation and activation of FAK” value is “significantly inhibited the phosphorylation and activation”. Besides, the “Phosphorylation and activation of AKT (pSer473)” value in assay [4] is “inhibited AKT phosphorylation and activation”. In addition, in assay [5], the “New vessel growth from aortic rings” value is recorded as “inhibited almost all new vessel growth”. For the same compound, the Retinal neovascularization result in assay [6] is given as “significantly inhibits retinal neovascularization; also recorded: significant difference in the degree of neovascularization”. Moreover, the “Phosphorylation and activation of VEGFR2 in HUVEC cells” value in assay [7] is on record as “dramatically inhibited the phosphorylation of VEGFR2; also recorded: strongly inhibited VEGFR2 kinase activity”. The “VEGF induced corneal angiogenesis” value in assay [8] was “significantly inhibits corneal angiogenesis; also recorded: dramatically inhibits”.
